Source: article PMC9227536, “Prediction of Pharmacokinetics of IDP-73152 in Humans Using Physiologically-Based Pharmacokinetics” (Pharmaceutics, 2022)
Read-outs that look alike come from different tables or passages of the source.

Columns and labels:
[1] = Tissue distribution at steady state, constant-rate infusion in rats; assay type: in vivo; conditions: for Kp at 10 h: 10 h infusion, read-out: KP,ss
Procedure: In this study, the extent of tissue distribution of IDP-73152 was also determined in rats. Rats received IDP-73152 at a constant rate of infusion (i.e., the rate of 0.8 mg/h (in 0.6 mL/h)) using a syringe pump (PHD ULTRA, Harvard apparatus, Holliston, MA, USA). The steady state was assumed to have been achieved when IDP-73152 was infused for 10 h (see below). Upon completion of the infusion, the animal was sacrificed, and major tissues (i.e., adipose tissue, brain, heart, kidney, liver, lung, muscle, skin, spleen, and testis) were collected. Assuming the density of tissues to be 1 g/mL, tissue samples were homogenized in twice their volume of phosphate buffered saline using a homogenizer (Ultra Turrax homogenizer, IKA-Werke GmbH & Co. KG, Staufen, Germany). Plasma samples and tissue homogenates were stored at −80 °C until analysis. The tissue-to-plasma concentration ratio at steady state (KP,ss) was then calculated for each tissue using the following equation [23, 24, 25]:(8) KP,ss=Ctissue,ss/Cplasma,ss, where Ctissue,ss and Cplasma,ss represent the concentration of the compound in the tissue and plasma at steady-state.
For the estimation of the volume of the distribution of IDP-73512 in rats, the steady-state volume of distribution (Vss) was calculated using the following equation [30]:(10) Vss=VP+Vrbc×EP+∑VT,i×KP,ss,i, where Vp, Vrbc, and VT,i are the volumes of plasma, red blood cells, and tissues, respectively. The erythrocyte-to-plasma partition coefficient (EP), is calculated by EP=1+(BP−1)/Hematocrit . The KP,ss for each tissue obtained from Equation (8) was applied for Equation (10). For the case of non-eliminating organs, the KP,ss was regarded as the tissue-to-plasma partition coefficient (KP) in PBPK equations (Appendix A). For the case of the liver—i.e., the eliminating organ—the KP,ss (KP,ss,LI) had to be corrected to account for the equilibrium being altered by the elimination. Thus, a PBPK-operative KP for liver (KP,LI) was calculated using the following equation [31]:(11) KP,LI=KP,ss,LI/(1−ER), where ER is the hepatic extraction ratio of the compound (i.e., CLh/(QLI·BP)). In this study, a compartmental absorption and transit (CAT) model consisting of stomach and five intestinal segments was considered for the description of the intestinal absorption kinetics of IDP-73152 in animals and humans. We assumed that the initial compartment denoted the stomach (Equation (12)), and the subsequent three compartments represented the small intestine and two additional compartments for the large intestine (i.e., a total of six compartments, with absorption occurring in the five intestinal compartments) (Equation (13)). The differential equations describing the rate of drug absorption and transit in the gastrointestinal tract can be written as: […]

in vitro = in vitro ADME; conditions: microsomes
Procedure: The unbound fractions of IDP-73152 in various matrices were measured according to the manufacturer’s instructions for the rapid equilibrium dialysis (RED) device (ThermoFisher Scientific, Waltham, MA, USA). Briefly, IDP-73152 was added to the plasma or the microsomal/hepatocyte incubation buffer from various species (i.e., mouse, rat, dog, and human for microsomal incubation; rat for hepatocyte incubation) to obtain final concentrations of the compound at 0.3, 1, and 3 μM. After the membrane insert was placed in the RED plate, the solution containing IDP-73152 was added (400 µL) to the sample chamber, and the dialysis buffer (600 μL) was added to the buffer chamber. The RED plate was sealed with parafilm and then incubated at 37 °C in the orbital shaker (Lab Companion, Daejeon, Korea) at 100 rpm for 5 h. After a 50 μL aliquot was aspirated from both the sample and buffer chambers, an equal volume of protein-free buffer or blank medium was replaced in the aspirated sample or buffer to render the matrices compositionally identical. The IDP-73152 concentration in the buffer/sample chambers (i.e., CBuffer Chamber and CSample Chamber) was determined by an assay. Thus, the fraction unbound was defined as:(2) % Fraction unbound=(CBuffer Chamber/CSample Chamber)×100%

[2] = Blood partitioning (LC-MS/MS-based depletion method), dog; assay type: in vitro ADME; conditions: whole blood, dogs blood, 0.3, 1, 3 μM, read-out: BP (blood-to-plasma concentration ratio)
Procedure: In this study, the partitioning of IDP-73152 in blood samples obtained from mice, rats, dogs, and humans was determined using the LC-MS/MS-based depletion method with slight modifications. DP-73152 was added to an aliquot (1 mL) of blank blood or plasma at a final concentration of 0.3, 1, or 3 μM. The mixture was incubated at 37 °C in a water bath for 60 min. After the incubation, the plasma was separated by centrifugation of the blood samples for 5 min at 10,000× g/4 °C and stored at -80 °C until analysis. The blood-to-plasma concentration ratio (BP) was calculated using the equation:(3) BP=[…], where […] is the concentration of the compound at the corresponding blood concentration in the plasma, and CPL is the concentration from the plasma sample separated from the incubated blood.

CC(C)(C)[C@H](NC(=O)[C@H](CC1CCCC1)CN(O)C=O)C(=O)N1CCC(NCc2cc(F)c(F)cc2F)CC1 [IDP-73152]
Kp at 10 h ([1]; Sprague Dawley, rat, intravenous, 0.8 mg/h, adipose tissue): 0.853 ± 0.196
Kp at 10 h ([1]; Sprague Dawley, rat, intravenous, 0.8 mg/h, brain): 0.0729 ± 0.0167
Kp at 10 h ([1]; Sprague Dawley, rat, intravenous, 0.8 mg/h, heart): 2.15 ± 0.22
Kp at 10 h ([1]; Sprague Dawley, rat, intravenous, 0.8 mg/h, kidney): 8.68 ± 1.83
Kp at 10 h ([1]; Sprague Dawley, rat, intravenous, 0.8 mg/h, liver): 12.2 ± 3.3
Kp at 10 h ([1]; Sprague Dawley, rat, intravenous, 0.8 mg/h, lung): 7.13 ± 1.28
Kp at 10 h ([1]; Sprague Dawley, rat, intravenous, 0.8 mg/h, muscle): 1.37 ± 0.3
Kp at 10 h ([1]; Sprague Dawley, rat, intravenous, 0.8 mg/h, skin): 1.08 ± 0.38
Kp at 10 h ([1]; Sprague Dawley, rat, intravenous, 0.8 mg/h, spleen): 4.82 ± 1.3
Kp at 10 h ([1]; Sprague Dawley, rat, intravenous, 0.8 mg/h, testis): 0.338 ± 0.089
plasma concentration during infusion ([1]; intravenous infusion 0.8 mg/h, 10 h): 2120 ± 340 ng/mL
Vd ([1]; male, Sprague Dawley, rat, plasma and tissue homogenates, intravenous, 0.8 mg/h, from KP,ss of ten tissues, read-out: Vss calculated by Equation (10)): 2.09 L/kg
concentration at 10 h ([1]; male, Sprague Dawley, rat, plasma, intravenous infusion 0.8 mg/h for 10 h, from CLp, read-out: expected steady-state concentration): 2120 ± 340 ng/mL
concentration at 8 h ([1]; male, Sprague Dawley, rat, plasma, intravenous infusion 0.8 mg/h, 8 h, read-out: plasma concentration during infusion): 2070 ± 360 ng/mL
concentration at 9 h ([1]; male, Sprague Dawley, rat, plasma, intravenous infusion 0.8 mg/h, 9 h, read-out: plasma concentration during infusion): 1910 ± 270 ng/mL
fraction unbound at 5 h (in vitro; dog): 0.507 ± 0.04
fraction unbound at 5 h (in vitro; human): 0.579 ± 0.006
fraction unbound at 5 h (in vitro; mouse): 0.571 ± 0.023
fraction unbound at 5 h (in vitro; rat): 0.439 ± 0.043
blood plasma ratio at 60 min [2]: 1.45 ± 0.11
